ChEMBL document CHEMBL1697781, “Assessment of the health effects of chemicals in humans: II. Construction of an adverse effects database for QSAR modeling” (Curr Drug Discov Technol, 2004)

Tests used:
Conditions in all cases: human; call rule not given here
Hepatotoxicity [1] = assay: FDA HLAED, serum glutamic oxaloacetic transaminase (SGOT) increase
Hepatotoxicity [2] = assay: FDA HLAED, lactate dehydrogenase (LDH) increase
Hepatotoxicity [3] = assay: FDA HLAED, liver enzyme composite activity
Hepatotoxicity [4] = assay: FDA HLAED, alkaline phosphatase increase
Hepatotoxicity [5] = assay: FDA HLAED, gamma-glutamyl transferase (GGT) increase
Hepatotoxicity [6] = assay: FDA HLAED, serum glutamic pyruvic transaminase (SGPT) increase
For GGT Increase - Index Value in this document: reference of the scale not given here.
For LDH Increase - Index Value in this document: reference of the scale not given here.

| Compound | SGOT Increase - Activity Score (Hepatotoxicity [1]) | SGOT Increase - Index Value (Hepatotoxicity [1]) | SGOT Increase - Number of Reports (Hepatotoxicity [1]) | LDH Increase - Activity Score (Hepatotoxicity [2]) | LDH Increase - Index Value (Hepatotoxicity [2]) | LDH Increase - Number of Reports (Hepatotoxicity [2]) | Composite Activity - Active (Hepatotoxicity [3]) | Composite Activity - Marginal (Hepatotoxicity [3]) | Composite Activity - Score (Hepatotoxicity [3]) | Alkaline Phosphatase Increase - Activity Score (Hepatotoxicity [4]) | Alkaline Phosphatase Increase - Index Value (Hepatotoxicity [4]) | Alkaline Phosphatase Increase - Number of Reports (Hepatotoxicity [4]) | GGT Increase - Activity Score (Hepatotoxicity [5]) | GGT Increase - Index Value (Hepatotoxicity [5]) | GGT Increase - Number of Reports (Hepatotoxicity [5]) | SGPT Increase - Activity Score (Hepatotoxicity [6]) | SGPT Increase - Index Value (Hepatotoxicity [6]) | SGPT Increase - Number of Reports (Hepatotoxicity [6]) |
| --- | --- | --- | --- | --- | --- | --- | --- | --- | --- | --- | --- | --- | --- | --- | --- | --- | --- | --- |
| COc1ccc(Cl)cc1C(=O)NCCc1ccc(S(=O)(=O)NC(=O)NC2CCCCC2)cc1 [GLYBURIDE] | Inactive | 1.8 | >= 4 | Inactive | 0.8 | >= 4 | 0 | 1 | Inactive | Marginally Active | 3.4 | >= 4 | Inactive | 0 | < 4 | Inactive | 2.2 | >= 4 |
| CN1C2CCCC1CC(NC(=O)c1nn(C)c3ccccc13)C2 (stereo not drawn) [GRANISETRON] | Inactive | 0.6 | < 4 | Inactive | 0.2 | < 4 | 0 | 0 | Inactive | Inactive | 1 | >= 4 | Inactive | 0.2 | < 4 | Inactive | 0.6 | < 4 |
| N=C(N)N/N=C/c1c(Cl)cccc1Cl [GUANABENZ] | Inactive | 0.9 | < 4 | Inactive | 0.3 | < 4 | 0 | 0 | Inactive | Inactive | 0 | < 4 | Inactive | 0 | < 4 | Inactive | 0.6 | < 4 |
| N=C(N)NC(=O)Cc1c(Cl)cccc1Cl [GUANFACINE] | Inactive | 1.3 | >= 4 | Inactive | 0.6 | < 4 | 0 | 0 | Inactive | Inactive | 1 | < 4 | Inactive | 0 | < 4 | Inactive | 0.3 | < 4 |
| O=C1CN=C(c2ccccc2)c2cc(Cl)ccc2N1CC(F)(F)F [HALAZEPAM] | Inactive | 0 | < 4 | Inactive | 0 | < 4 | 0 | 0 | Inactive | Inactive | 0 | < 4 | Inactive | 0 | < 4 | Inactive | 0 | < 4 |
| C[C@H]1C[C@H]2[C@@H]3C[C@H](F)C4=CC(=O)C=C[C@]4(C)[C@@]3(F)[C@@H](O)C[C@]2(C)[C@@]1(O)C(=O)CCl [HALOBETASOL] | Inactive | 0 | < 4 | Inactive | 0 | < 4 | 0 | 0 | Inactive | Inactive | 0 | < 4 | Inactive | 0 | < 4 | Inactive | 0 | < 4 |
